Data on 5 molecules can be found in publication PMC9989471, “The Key Roles of Mycobacterium tuberculosis FadD23 C-terminal Domain in Catalytic Mechanisms” (Frontiers in Microbiology, 2023).

Data set [1] has as its target T1, FadD23 (Mycobacterium tuberculosis, UniProt P9WQ47).
T1 construct: full-length
Nature of the data set: crystal structure ([…] Å), formed from ATP and palmitic acid. In kind it is binding.

Data set [2] addresses T1, FadD23. Nature of the data set: SPR; also crystal structure with AMP-PNP, MS, DSF and hydroxamate-MesG assay. In kind it is binding. On the technique in general: Surface plasmon resonance follows binding to a sensor surface in real time, without labels.
The target of data set [3] is T1, FadD23. The data set is described as follows: SPR. In kind it is binding.
Data set [4] has as its target T1, FadD23. Nature of the data set: crystal structure ([…] Å), with palmitic acid bound. In kind it is binding.
Data set [5] deals with CCCCCCCCCCCC(=O)O. Nature of the data set: purified protein. The following applies: ATP, Mg2+.

T1 sequence (P9WQ47 whole entry): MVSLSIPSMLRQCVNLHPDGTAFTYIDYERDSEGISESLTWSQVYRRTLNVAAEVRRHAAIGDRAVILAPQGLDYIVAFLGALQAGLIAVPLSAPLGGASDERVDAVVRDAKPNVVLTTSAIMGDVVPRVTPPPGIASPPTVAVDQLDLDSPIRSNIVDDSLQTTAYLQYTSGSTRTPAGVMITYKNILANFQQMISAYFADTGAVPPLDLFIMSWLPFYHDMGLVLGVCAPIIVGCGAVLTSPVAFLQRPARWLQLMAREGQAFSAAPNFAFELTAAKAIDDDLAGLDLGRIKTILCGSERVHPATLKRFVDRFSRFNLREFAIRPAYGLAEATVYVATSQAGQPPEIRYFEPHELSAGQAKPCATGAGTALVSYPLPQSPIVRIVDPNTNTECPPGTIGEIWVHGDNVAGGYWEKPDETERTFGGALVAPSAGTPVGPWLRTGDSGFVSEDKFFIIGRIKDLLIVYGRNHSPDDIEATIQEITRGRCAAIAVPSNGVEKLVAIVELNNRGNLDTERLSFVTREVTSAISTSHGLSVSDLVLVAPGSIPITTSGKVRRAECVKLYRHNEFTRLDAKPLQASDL

Consider `CCCCCCCCCCCCCCCC(=O)OP(=O)(O)OC[C@H]1O[C@@H](n2cnc3c(N)ncnc32)[C@H](O)[C@@H]1O` [AMP-C16, hexadecanoyl adenylate], for which the “crystal structure (2.68 Å), formed from ATP and palmitic acid” value in data set [1] is “FadD23 catalyzed the hydrolysis of ATP and connected AMP with palmitic acid to generate a molecule of AMP-C16”.

One may read the Kd as the equilibrium constant for the complex coming apart. Read a high Kd as a looser complex. In data set [2], `CCCCCCCCCCCCCCCC(=O)O` [palmitic acid] came in with a Kd of 34.5 µM.

Molecule `Nc1ncnc2c1ncn2[C@@H]1O[C@H](COP(=O)(O)OP(=O)(O)OP(=O)(O)O)[C@@H](O)[C@H]1O` [ATP] yielded a Kd in data set [3] of approximately 1 µM.

Regarding `Nc1ncnc2c1ncn2[C@@H]1O[C@H](CO[P@](=O)(O)O[P@](=O)(O)NP(=O)(O)O)[C@@H](O)[C@H]1O` [AMP-PNP], the “crystal structure (2.25 Å), with palmitic acid bound” value in data set [4] is recorded as “In the AMP-PNP-FadD23 complex, the O27 of AMP-PNP interacted with NE of Arg460 through hydrogen bond”.

What is called Km is the concentration of substrate that gives half-maximal velocity. What is called Vmax is the rate approached at saturating substrate. A word on the kcat: it is the number of substrate molecules converted per active site and unit of time at saturation. Usually kcat/Km stands for the second-order rate constant that governs catalysis at low substrate concentration. Take “FadD23 (Mycobacterium tuberculosis H37Rv)”: in data set [5], the Km worked out at 33.56 ± 5.40 µM, the Vmax stood at 0.00108 µmol/min, the kcat worked out at 0.00239 s⁻¹ and the specificity constant (kcat/Km) was 71.2 M⁻¹ s⁻¹.
